In patent publication US10806721B2, “Formulation for use in the treatment of uremic pruritus” (DRUG DELIVERY SOLUTIONS, priority 2016, dated 2020):

Tests used:
[1] = test system: Human Reconstructed Epidermis (RHE); experiment: ELISA of carbamoylated proteins in RHE with urea in the growth medium (Example 4); format: cell-based
Text: (§1) Protein analysis was made according to a previous developed method (14). Carbamoylated proteins from the skin samples were coated to ELISA wells and quantified using a using a primary polyclonal anti-homocitrullin antibody and a secondary labelled polyclonal detection antibody.
The same method as described in example 3 was used. The studies were based on the use of the Human Reconstructed Epidermis (RHE) model purchased from Episkin®. Three experiments were made in duplicate including 2 controls. Growth media (1 ml) with and without additions (see below) were replaced daily accordingly to the standard protocol. In contrast to Example 3 the urea exposure was made by addition of urea to the growth medium. Experiment 1 corresponds to the two controls; experiment 2 was with growth medium with 4 mg/ml urea; experiment 3 was with growth medium with 4 mg/ml urea and with addition of 5 mg […] cream with 2% amino acids applied on top of RHE skin surface at Day 0 and Day 3. All 6 skin samples looked macroscopically healthy when they were harvested after 6 days. There were no signs of infection or necrosis. They were immediately frozen at minus 80° C. until protein analysis. Parts of all samples were sent for histological examination.
Protein carbamoylated was investigated using the same method as in Experiment 3.

[2] = test system: reconstructed human epidermis (RHE); experiment: Histological examination of reconstructed human epidermis exposed to urea (Example 3); format: cell-based
Experimental: (§2) To further investigate possible carbamylation in human skin in UP (Uremic Pruritus) the inventors conducted a series of studies in the reconstructed human epidermis (RHE) model. The 4 cm^2 large skin samples were delivered from Episkin® in 6 well plates each with a volume of 1 ml. The experiments were carried out in 18-25 days old skin samples. RHE is a standardized technology used to investigate metabolic, toxic and inflammatory reactions in the skin (13). The skin samples were developed from human epidermal stem cells. They were developed on a […] net with an underlying growth medium. The RHE contains all the different cell layers in the epidermis, including stratum corneum. The samples are kept at 37° C. in a 5% CO2 atmosphere. They are handled under sterile conditions. New growth medium is added daily. The 4 cm^2 large skin samples were ready for use after 18 days' development; a time span similar to the normal turnover of human skin.
(§3) 12 individual experiments were carried out including 2 controls. Growth media (1 ml) were replaced daily according to the standard protocol. 6 of the samples were harvested at day 3 and 6 at day 6 and immediately frozen at minus 80° C. until protein analysis. Parts of all samples were sent for histologic examination.
(§4) The following exposures (individual experiments), all from stratum corneum side of the skin sample, were made.
(§5) 2. Urea in an aqueous solution in the same amount—calculated as mg/cm^2 skin—, as in UP. This calculated amount corresponds to 0.3 mg/cm^2, based on calculation of the sum of the average serum levels of urea in uremic patients, urea from sweat, and contribution from active transport of urea into the cells in epidermis. The addition of urea is done by the addition of 200 μl of a solution of 6 mg urea/ml) to the surface of the skin samples.
(§6) 3. As under above item 2 but in double amount (0.6 mg/cm^2).
(§7) 4. As under above item 3 and added 200 μl of a 1% histidine solution.
(§8) 5. 5% commercially available urea cream dosed as intended human use
6. 10% commercially available urea cream dosed as intended human use […]

[3] = test system: reconstructed human epidermis (RHE); experiment: ELISA of carbamoylated proteins in reconstructed human epidermis exposed to urea from the stratum corneum side (Example 3); format: cell-based; details: for ELISA reading, carbamoylated proteins, Day 3: harvested day 3; for ELISA reading, carbamoylated proteins, Day 6: harvested day 6; for carbamylation of proteins (result in words): exposure on top of RHE skin samples, within 6 days
Experimental: as §2, §3, §4
1. Controls: Left untreated.
as §5, §6, §7, §8
6. 10% commercially available urea cream dosed as intended human use
The skin samples harvested at day 3 were exposed day 0 to 2-6 and day 1 to 2-4. (tabl. 1)
The skin samples is harvested at day 6 were exposed as above and further day 3 to 2-6. In agreement with Table 1 the aqueous urea solution was absorbed immediately through the skin samples. The two creams left a deposit on top of the skin and were therefore only applied twice; day 0 and day 3 (for the 6-day experiment). Daily exposures were abstained to minimize the risk of infection. […] Further the urea concentrations from experiments 2, 3 and 4 harvested day 6 may have been relatively low due to only one supplementary exposure day 3.
as §1

[4] = Degradation of histidine in the cream of Example 1 exposed to urea; format: physicochemical; details: cream of Example 1 with 10 w/w % urea; six weeks at 40° C.
Experimental: The degradation process was followed over time and after six weeks at 40° C. only 20% histidine was left in the cream having 10 w/w % urea.

[5] = Urea conc. as in UP (high) 12 mg, 0.6 mg/cm^2 on skin surface
[6] = Urea conc. as in UP (moderate) 6 mg, 0.3 mg/cm^2 on skin surface
[7] = 0.5% histidine added to urea conc. as in UP (high) 12 mg

Row | histidine left in the cream [4] | Structure (SMILES) | Elisa reading, carbamoylated proteins, average of two experiments ([1]; GM + 4 mg urea/ml, harvested after 6 days) | level of protein carbamylation (result in words) ([1]; growth medium with 4 mg/ml urea, 6 days) | histological changes (edema and disruptions in stratum corneum, premature cell death in stratum spinosum) ([2]; harvested day 3) | histological changes ([2]; harvested day 6) | ELISA reading, carbamoylated proteins, Day 3 [3, 5] | ELISA reading, carbamoylated proteins, Day 6 [3, 5] | ELISA reading, carbamoylated proteins, Day 3 [3, 6] | ELISA reading, carbamoylated proteins, Day 6 [3, 6] | carbamylation of proteins (result in words) [3] | effect on urea-induced edema and cell death (histology) ([2]; histidine added to urea 0.6 mg/cm^2, harvested both day 3 and day 6) | ELISA reading, carbamoylated proteins, Day 3 [3, 7] | ELISA reading, carbamoylated proteins, Day 6 [3, 7]
1 |  | NC(N)=O [Urea] | 0.68 absorbance units | highest level of carbamylation | significant changes | recovered to a certain extent | 0.316 absorbance units | 0.475 absorbance units | 0.377 absorbance units | 0.368 absorbance units | could be demonstrated |  |  | 
2 | 20% | N[C@@H](Cc1c[nH]cn1)C(=O)O [histidine] |  |  |  |  |  |  |  |  | prevented this carbamylation | can counteract this effect | 0.312 absorbance units | 0.321 absorbance units
